Source: patent US12427135B2 (priority 2019, dated 2025)

How the values were obtained:
Stx2A1 [1] = target: T1, Stx2A1 (Escherichia phage 933W (Bacteriophage 933W), UniProt P09385); type: binding
Stx2A1 [2] = target: T1, Stx2A1; test: biochemical; type: biochemical
RTA [3] = target: T2, RTA (Ricinus communis (Castor bean), UniProt P02879); type: binding
RTA [4] = target: T2, RTA; test: biochemical; type: biochemical; conditions: for inhibition at 50 µM: read-out: Percent inhibition at 50 μM
Stx2a holotoxin = Stx2a holotoxin (Escherichia phage 933W (Bacteriophage 933W), UniProt P09385); test: cell-based; type: cell-based
Stx2a holotoxin, sequence (P09385 23-319 limits assumed): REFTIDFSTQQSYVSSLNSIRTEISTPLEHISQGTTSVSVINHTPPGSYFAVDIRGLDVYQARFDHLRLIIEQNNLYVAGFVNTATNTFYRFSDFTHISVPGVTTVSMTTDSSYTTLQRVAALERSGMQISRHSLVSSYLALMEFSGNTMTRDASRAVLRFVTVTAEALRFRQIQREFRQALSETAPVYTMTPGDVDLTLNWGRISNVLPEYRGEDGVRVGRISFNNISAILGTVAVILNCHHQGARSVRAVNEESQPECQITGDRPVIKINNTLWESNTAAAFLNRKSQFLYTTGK

[5] = read-out: % inhibition Stx2A1 in yeast ribosome
[6] = Vero, read-out: % Inhibition Stx2a depurination in Vero cell

T1 sequence (P09385 23-272 limits assumed): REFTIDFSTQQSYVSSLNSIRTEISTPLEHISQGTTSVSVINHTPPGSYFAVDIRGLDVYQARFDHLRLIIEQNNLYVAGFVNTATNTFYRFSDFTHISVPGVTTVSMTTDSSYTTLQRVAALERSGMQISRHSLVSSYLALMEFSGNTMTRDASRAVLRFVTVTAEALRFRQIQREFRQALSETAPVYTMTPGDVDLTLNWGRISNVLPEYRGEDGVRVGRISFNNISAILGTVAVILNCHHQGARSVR

SMILES: O=C(O)c1ccc(-c2ccc(Cl)cc2)o1
- Kd (Stx2A1 [1]): 0.575 mM
- IC50 (Stx2A1 [2]): 194 µM

SMILES: Cc1ccc(-c2ccc(C(=O)O)o2)cc1
- Kd (Stx2A1 [1]): 0.606 mM
- inhibition at 100 µM (Stx2A1 [2]; [5]): 64%
- inhibition at 200 µM (Stx2A1 [2]; [5]): 70%

SMILES: O=C(O)c1csc(-c2cccc(Cl)c2)n1
- Kd (Stx2A1 [1]): 0.579 mM
- inhibition at 100 µM (Stx2A1 [2]; [5]): 83%
- inhibition at 200 µM (Stx2A1 [2]; [5]): 91%

SMILES: O=C(O)c1csc(-c2cccc(Cl)c2Cl)n1
- Kd (Stx2A1 [1]): 0.487 mM
- inhibition at 100 µM (Stx2A1 [2]; [5]): 82%
- inhibition at 200 µM (Stx2A1 [2]; [5]): 62%

SMILES: O=C(O)c1ccc(-c2ccccc2)s1 [CC10501, 5-phenylthiophene-2-carboxylic acid]
- binding in the binding level screen (RTA [3]): bound RTA better than the positive controls
- IC50 fold weaker than CC70601 (RTA [4]): 5.6 fold

SMILES: O=C(O)c1ccc(Cc2cccs2)cc1 [CC70601, 4-(thien-2-ylmethyl) benzoic acid]
- binding in the binding level screen (RTA [3]): bound RTA better than the positive controls

SMILES: O=C(O)c1cc2c(s1)-c1ccccc1CC2 [PD00589, reference compound]
- inhibitory activity against Stx2A/Stx2A1 depurination in vitro (Stx2A1 [2]): dose-dependent inhibition
- protection against depurination by Stx2a holotoxin in Vero cells (Stx2a holotoxin): protected Vero cells against depurination

SMILES: Cc1ccccc1-c1ccc(C(=O)O)s1 [RU-NT-070]
- Kd (RTA [3]): 72 µM
- IC50 (RTA [4]): 19 µM

SMILES: Cc1cc(C)c(-c2ccc(C(=O)O)s2)c(C)c1 [RU-NT-075]
- inhibition at 50 µM (RTA [4]): 45%

SMILES: O=C(O)c1ccc(-c2cccc3c2OCC3)s1 [RU-NT-105]
- Kd (RTA [3]): 1180 ± 193 µM
- inhibition at 100 µM (RTA [4]; read-out: Percent inhibition at 100 μM): 54 ± 7%

SMILES: Cc1cccc(F)c1-c1ccc(C(=O)O)s1 [RU-NT-110]
- Kd (RTA [3]): 93 µM
- inhibition at 50 µM (RTA [4]): 61%

SMILES: COc1cccc(C)c1-c1ccc(C(=O)O)s1 [RU-NT-111]
- Kd (RTA [3]): 51 µM
- inhibition at 50 µM (RTA [4]): 66%

SMILES: Cc1cccc(O)c1-c1ccc(C(=O)O)s1 [RU-NT-113]
- Kd (RTA [3]): 31 µM
- inhibition at 50 µM (RTA [4]): 69%

SMILES: O=C(O)c1cc2c(s1)-c1ccccc1CC2 [drawing 373]
- Kd (Stx2A1 [1]): 0.629 mM
- inhibition at 50 µM (Stx2A1 [2]; [5]): 45%
- inhibition at 100 µM (Stx2A1 [2]; [5]): 51%
- inhibition at 200 µM (Stx2A1 [2]; [5]): 80%
- inhibition at 250 µM (Stx2a holotoxin; [6]): 18%
- inhibition at 500 µM (Stx2a holotoxin; [6]): 36%
